Test results from patent US6872557B1, “Gene encoding novel human secretory phospholipase A2” (Shionogi & Co., Ltd., priority 1999, dated 2005).

What was measured:
[1] = target: T1, human IIA type secretory PLA2 (Homo sapiens, UniProt P14555); assay: Inhibition of secretory PLA2 activity, release of 14C-oleic acid from 14C-POPC; format: biochemical; settings: 14C-POPC substrate, 40° C., 60 min, various concentrations of Indoxam; FIG. 4
T1 sequence (P14555 21-144): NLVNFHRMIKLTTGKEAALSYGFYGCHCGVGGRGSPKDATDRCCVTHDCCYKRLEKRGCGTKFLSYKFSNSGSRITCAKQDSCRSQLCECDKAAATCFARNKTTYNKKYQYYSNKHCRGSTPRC
Protocol: (§1) Inhibitory activity against this novel type of human secretory type PLA2 was determined with Indoxam that is a 1-oxamoylindolidine derivative. It has already been reported that Indoxam inhibits the enzymatic activities of IIA type and IB type secretory type PLA2 (Yokota et al., Biochim. Biophys. Acta (1999) 1438, 213-222). The PLA2 activities were determined by the measurement of the quantity of released ^14C-oleic acid from ^14C-labeled 1-palmitoyl-2-oleoyl-phosphatidylcholine (POPC), according to the Draheim et al.'s method (J. Med. Chem., (1996) 39, 5159-5175). In the solution composed of 50 mM Tris-HCl (pH 8.0), 200 mM NaCl, 2 mM CaCl2, and 1 mg/ml bovine serum albumin, the substrates composed of 1 mM POPC (the mixture of about 100,000 cpm ^14C-POPC and unlabeled POPC) and 3 mM deoxycholic acid were incubated with each secretory PLA2 in the presence of various concentrations of Indoxam at 40° C. for 60 min. Then, the quantity of released ^4C-oleic acid was measured. Purified materials were used in the case with human IB type (2 ng), IIA type (10 ng) and X type (4 ng). Human V type, IID type and the secretory type PLA2 of this invention (IIE type) were prepared from the culture supernatant of CHO cells that stably express them.
(§2) The quantity of released ^14C-oleic acid from ^14C-POPC by each human secretory type PLA2 in the absence of Indoxam was regarded as 100% and the quantity of released ^14C-oleic acid in the presence of each concentration of Indoxam was shown as %.

[2] = target: T2, human IID type secretory PLA2 (Homo sapiens, UniProt Q9UNK4); assay: as above; format: biochemical; settings: 14C-POPC substrate, 40° C., 60 min, various concentrations of Indoxam; FIG. 4
T2 construct: made in house
T2 sequence (Q9UNK4 21-145): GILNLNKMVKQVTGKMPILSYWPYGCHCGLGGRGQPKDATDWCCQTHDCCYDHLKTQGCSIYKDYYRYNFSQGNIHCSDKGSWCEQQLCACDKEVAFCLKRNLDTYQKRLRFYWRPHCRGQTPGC
Protocol: as §1, §2

[3] = target: T3, human secretory type PLA2 of this invention (IIE type) (Homo sapiens, UniProt Q9NZK7); assay: as above; format: biochemical; settings: 14C-POPC substrate, 40° C., 60 min, various concentrations of Indoxam; FIG. 4
T3 construct: made in house
T3 sequence (Q9NZK7 20-142): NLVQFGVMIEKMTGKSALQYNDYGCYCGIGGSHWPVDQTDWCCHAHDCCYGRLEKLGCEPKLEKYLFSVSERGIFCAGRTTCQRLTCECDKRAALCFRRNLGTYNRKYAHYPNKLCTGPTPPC
Protocol: as §1, §2

[4] = target: T4, IIA type secretory type PLA2 (Homo sapiens, UniProt P14555); settings: already reported, Yokota et al., Biochim. Biophys. Acta (1999) 1438, 213-222; cited from earlier work
T4 sequence (P14555 21-144): T1 sequence (P14555 21-144)

[5] = target: IB type secretory type PLA2 (Homo sapiens, UniProt P04054); settings: already reported, Yokota et al., Biochim. Biophys. Acta (1999) 1438, 213-222; cited from earlier work
IB type secretory type PLA2, sequence (P04054 23-148): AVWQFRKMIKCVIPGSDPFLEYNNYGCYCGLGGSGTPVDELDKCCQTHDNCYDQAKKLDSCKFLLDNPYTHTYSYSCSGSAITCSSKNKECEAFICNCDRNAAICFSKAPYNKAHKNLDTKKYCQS

CCc1c(C(=O)C(N)=O)c2c(OCC(=O)O)cccn2c1Cc1ccccc1-c1ccccc1 [Indoxam]
inhibition of enzymatic activity of human IIA type PLA2 [1]: strongly inhibits | inhibition of enzymatic activity of human IID type PLA2 [2]: strongly inhibits | inhibition of enzymatic activity of human PLA2 of this invention (IIE type) [3]: strongly inhibits | inhibition of enzymatic activity of IIA type secretory type PLA2 [4]: inhibits | inhibition of enzymatic activity of IB type secretory type PLA2 [5]: inhibits
